Measurements as given in patent US20160331754A1, “THERAPIES FOR TREATING CANCERS” (GILEAD SCIENCES, INC., priority 2014, published 2016).
Several values for one entry are separate records, joined by “and”; a condition that tells them apart may be missing. Equal entries are not always repeated.

Experiments:
pS6 Ser235/236 [1] = assay: Western blot, TPO-activated S6 phosphorylation in BaF3/MPL cells; format: cell-based; conditions: then TPO
Experimental: (§1) In addition, Compound B was examined for the effects on the PI3K signaling pathway by determining the levels of AKT and S6 phosphorylation with or without TPO activation. Two cell lines, BaF3/MPL and UT-7/TPO sensitive or responsive to TPO activation were used. The cells were starved (i.e. growing on medium having less FBS) in […] FBS/RPMI for two hours before treated with 0.1, 1.0, or 2.0 μM of Compound B or vehicle (0.1% DMSO in RPMI) for 2 hours at 37° C. To examine the TPO-activated phosphorylation, the cells were then treated or activated with 50 ng/mL of human recombinant TPO (Peprotech) for 10 minutes at 37° C. The TPO activation or treatment may reflect the conditions in diseased cells as the PI3K pathway is activated by TPO in myelofibrosis. After treating with compound and/or TPO, the cells were collected, lysed by lysis buffer (Cell Signaling), separated by SDS-PAGE, and analyzed by the Western blot using antibodies specific to p-AKT Ser473 or pS6 Ser235/236 (Cell Signaling). The phosphorylation levels in treated cells were calculated and compared to those of untreated cells (i.e. vehicle as negative control).

pS6 Ser235/236 [2] = assay: Western blot, TPO-activated S6 phosphorylation in UT-7/TPO cells; format: cell-based; conditions: then TPO
Experimental: as §1

WIL2-S [3] = assay: ADCC LDH release assay, purified NK cells against WIL2-S target cells; format: cell-based, human; conditions: for Percentage of maximum obinutuzumab-mediated ADCC: Obinutuzumab 10 μg/mL, E:T=10:1, 4 h; for Percentage of maximum ADCC, rituximab: rituximab 10 μg/mL, FcγRIIIa 158F/F
Text: PI3K isoforms may play a role in immune effector cells and FcγR signaling. The effects of Compound B on the immune effector functions of obinutuzumab and rituximab in lymphoma cell lines were examined. To characterize the antibody-dependent cellular cytotoxicity (ADCC), PBMCs were isolated from healthy individuals with FcγRIIIa genotypes of 158F/F, 158F/V, or 158V/V (Leuko Paks from AllCells, Alameda, Calif.) using Ficoll density gradient centrifugation. NK cells were enriched using a negative-selection immunomagnetic enrichment kit ([…] Technologies, Vancouver, British Columbia, Canada). Enriched NK cells and target cells WIL2-S, S-DHL-4, or Z-138 were separately pre-incubated for 1 hour with or without Compound B (1/2 dilutions from about 1 mM to about 1 nM). In the last 20 minutes of the pre-incubation, target cells were opsonized with or without rituximab or obinutuzumab (at 10 μg/mL, the saturating concentration with maximal ADCC) at indicated effector-target ratios (E:T). Palivizumab was used as an isotype control. NK and target cells were combined and incubated for 4 hours at 37° C. in 5% CO2. To determine ADCC, […] dehydrogenase (LDH) was measured using a cytotoxicity detection kit (Roche Applied Science, Indianapolis, Ind.). In some assays, antigen-independent cellular cytotoxicity (AICC) which represented spontaneous release by NK cell killing of target cells without antibodies were used as control.
LDH release assays were conducted at 4 hours using WIL2-S line as target and purified NK cells (E:T=10:1). The results (n=9) were normalized as % of maximum ADCC.

WIL2-S [4] = assay: as above; format: cell-based, human; conditions: for Percentage of ADCC, 5 nM Compound B / Percentage of ADCC, 50 nM Compound B / Percentage of ADCC, 500 nM Compound B: antibody concentration 10 μg/mL; for Percentage of maximum ADCC, obinutuzumab: obinutuzumab 10 μg/mL; for Percentage of maximum ADCC, rituximab: rituximab 10 μg/mL
[5] = Compound B 0.98 nM, FcγRIIIa 158F/F
[6] = Compound B 0.98 nM, FcγRIIIa 158F/V
[7] = Compound B 0.98 nM, FcγRIIIa 158V/V
[8] = Compound B 1.95 nM, FcγRIIIa 158F/F
[9] = Compound B 1.95 nM, FcγRIIIa 158F/V
[10] = Compound B 1.95 nM, FcγRIIIa 158V/V
[11] = Compound B 3.91 nM, FcγRIIIa 158F/F
[12] = Compound B 3.91 nM, FcγRIIIa 158F/V
[13] = Compound B 3.91 nM, FcγRIIIa 158V/V

CC[C@H](Nc1ncnc2[nH]cnc12)c1nc2cccc(F)c2c(=O)n1-c1ccccc1 [Compound B, (S)-2-(1-((9H-purin-6-yl)amino)propyl)-5-fluoro-3-phenylquinazolin-4(3H)-one]
reduced p-S6 levels vs vehicle (pS6 Ser235/236 [1]; 0.1 μM 2 h): 24% | reduced p-S6 levels vs vehicle (pS6 Ser235/236 [1]; 1.0 μM 2 h): 27% | reduced p-S6 levels vs vehicle (pS6 Ser235/236 [1]; 2.0 μM 2 h): 41% | reduced p-S6 levels vs vehicle (pS6 Ser235/236 [2]; 0.1 μM 2 h): 13% | reduced p-S6 levels vs vehicle (pS6 Ser235/236 [2]; 1.0 μM 2 h): 28% | reduced p-S6 levels vs vehicle (pS6 Ser235/236 [2]; 2.0 μM 2 h): 48% | Percentage of maximum obinutuzumab-mediated ADCC (WIL2-S [3]; Compound B 0.98 nM): 99% and 91% and 109% and 94% and 96% and 103% and 104% and 101% | Percentage of maximum obinutuzumab-mediated ADCC (WIL2-S [3]; Compound B 1.95 nM): 100% and 89% and 125% and 104% and 106% and 112% and 107% | Percentage of maximum obinutuzumab-mediated ADCC (WIL2-S [3]; Compound B 3.91 nM): 91% and 84% and 102% and 113% and 105% and 108% and 110% and 103% | Percentage of maximum obinutuzumab-mediated ADCC (WIL2-S [3]; Compound B 7.81 nM): 90% and 89% and 98% and 113% and 105% and 109% and 107% and 94% | Percentage of maximum ADCC, rituximab (WIL2-S [3]; Compound B 15.63 nM): 92% and 108% | Percentage of maximum obinutuzumab-mediated ADCC (WIL2-S [3]; Compound B 31.25 nM): 82% and 85% and 102% and 107% and 96% and 95% | Percentage of maximum ADCC, rituximab (WIL2-S [3]; Compound B 31.25 nM): 86% and 109% | Percentage of maximum obinutuzumab-mediated ADCC (WIL2-S [3]; Compound B 62.5 nM): 78% and 88% and 103% and 95% and 108% and 112% and 98% | Percentage of maximum obinutuzumab-mediated ADCC (WIL2-S [3]; Compound B 125 nM): 84% and 87% and 104% and 97% and 111% and 110% and 105% and 94% | Percentage of maximum obinutuzumab-mediated ADCC (WIL2-S [3]; Compound B 250 nM): 89% and 91% and 99% and 97% and 95% and 106% and 109% and 102% | Percentage of maximum obinutuzumab-mediated ADCC (WIL2-S [3]; Compound B 500 nM): 79% and 83% and 94% and 92% and 96% and 106% and 104% | Percentage of maximum ADCC, obinutuzumab (WIL2-S [3]; Compound B 1000 nM, obinutuzumab 10 μg/mL, FcγRIIIa 158V/V, n=2): 83% and 82% | inhibition at […] (WIL2-S [3]; Homo sapiens, 250 nM, FcγRIIIa 158V/V genotype, read-out: inhibition of obinutuzumab-mediated ADCC): < 10% | effect on obinutuzumab-mediated ADCC in FcγRIIIa 158F/F or 158F/V genotypes (WIL2-S [3]; n=2 per genotype, antibody 10 μg/mL): did not affect | Percentage of ADCC, 5 nM Compound B (WIL2-S [4]; E:T 3:1): 58% and 56% and 53% and 49% and 46% and 44% and 39% | Percentage of ADCC, 5 nM Compound B (WIL2-S [4]; E:T 10:1): 72% and 75% and 73% and 79% and 74% | Percentage of ADCC, 5 nM Compound B (WIL2-S [4]; E:T 30:1): 81% and 82% and 79% and 76% and 80% and 77% and 85% and 84% | Percentage of ADCC, 50 nM Compound B (WIL2-S [4]; E:T 3:1): 54% and 58% and 50% and 39% and 37% and 44% and 42% | Percentage of ADCC, 50 nM Compound B (WIL2-S [4]; E:T 10:1): 72% and 74% and 69% and 77% and 76% and 73% | Percentage of ADCC, 50 nM Compound B (WIL2-S [4]; E:T 30:1): 76% and 81% and 80% and 79% and 75% and 85% and 84% | Percentage of ADCC, 500 nM Compound B (WIL2-S [4]; E:T 3:1): 50% and 53% and 36% and 34% and 39% and 35% and 38% | Percentage of ADCC, 500 nM Compound B (WIL2-S [4]; E:T 10:1): 67% and 73% and 71% and 66% and 70% | Percentage of ADCC, 500 nM Compound B (WIL2-S [4]; E:T 30:1): 76% and 79% and 77% and 72% and 75% and 81% and 82% | Percentage of maximum ADCC, obinutuzumab (WIL2-S [4]; [5]): 91% and 104% | Percentage of maximum ADCC, obinutuzumab (WIL2-S [4]; [6]): 103% and 104% | Percentage of maximum ADCC, obinutuzumab (WIL2-S [4]; [7]): 101% and 99% | Percentage of maximum ADCC, rituximab (WIL2-S [4]; [5]): 104% and 107% | Percentage of maximum ADCC, rituximab (WIL2-S [4]; [6]): 100% and 105% | Percentage of maximum ADCC, rituximab (WIL2-S [4]; [7]): 102% and 99% | Percentage of maximum ADCC, obinutuzumab (WIL2-S [4]; [8]): 89% and 106% | Percentage of maximum ADCC, obinutuzumab (WIL2-S [4]; [9]): 104% and 112% | Percentage of maximum ADCC, obinutuzumab (WIL2-S [4]; [10]): 107% and 100% | Percentage of maximum ADCC, rituximab (WIL2-S [4]; [8]): 103% and 111% | Percentage of maximum ADCC, rituximab (WIL2-S [4]; [9]): 105% and 111% | Percentage of maximum ADCC, rituximab (WIL2-S [4]; [10]): 105% and 104% | Percentage of maximum ADCC, obinutuzumab (WIL2-S [4]; [11]): 84% and 108% | Percentage of maximum ADCC, obinutuzumab (WIL2-S [4]; [12]): 105% and 110% | Percentage of maximum ADCC, obinutuzumab (WIL2-S [4]; [13]): 103% and 91% | Percentage of maximum ADCC, rituximab (WIL2-S [4]; [11]): 97% and 109% | Percentage of maximum ADCC, rituximab (WIL2-S [4]; [12]): 102% and 110% | Percentage of maximum ADCC, rituximab (WIL2-S [4]; [13]): 102% and 105%
